Laboratory results from patent US8633227B2, “Synthesis and novel salt forms of (R)-3-((E)-pyrrolidin-3-yl)vinyl)-5-tetrahydropyran-4-yloxy)pyridine” (priority 2008, dated 2014).

Assays:
Preliminary salt screen = type: physicochemical; details: equi-millimolar base and acid, 2-propanol or acetonitrile, alternative solvents
Method: Test tubes (4 mL), provided with magnetic stir bars, were charged with equi-milimolar amounts of (R)-3-((E)-2-(pyrrolidin-3-yl)vinyl)-5-(tetrahydropyran-4-yloxy)pyridine base and the acid of interest (neat) and dissolved with 500 μL of either 2-propanol or acetonitrile with the aid of heat.
If no precipitation occurred, the solvent was evaporated under a nitrogen stream with moderate heating and an alternative solvent was tried. Alternative solvents included acetone, ethyl acetate, isopropyl acetate, absolute ethanol, acetonitrile, hexane, tert-butanol, tert-butyl acetate, and blends thereof.
The use of alcohols was avoided in the case of sulfonic acids.

[1] = design: species or system human
Source text: Therefore any variation of (R)-3-((E)-2-(pyrrolidin-3-yl)vinyl)-5-(tetrahydropyran-4-yloxy)pyridine or a salt thereof metabolism in human due to CYP polymorphism is expected to be less than 2 fold due to the significant renal clearance and low hepatic clearance.

normal rats = test: Novel object recognition (NOR) task; type: in vivo, rat; details: for NOR time after dosing with statistically significant effect (out to / up to): 0.004 μmol/kg oral (FIG. 2)
Method: Memory was assessed by using a three-trial novel object recognition test (Luine et al., Pharm. Biochem. Behav. 74, 213-220 (2002)). On the first day (exploratory trial), rats were allowed to explore an open arena (44.5×44.5×30.5 cm) for 6 min. On the second day (acquisition trial), rats were allowed to explore the same arena in the presence of two identical objects (both object A) for 3 min. On the third day (retention or recall trial), performance was evaluated by allowing the same animal to re-explore the arena for 3 min in the presence of two different objects: the familiar object A and a novel object B. An inter-trial interval of 24 h was imposed between the three NOR trials. Recognition memory was assessed by comparing the time spent exploring a novel (object B) versus a familiar (object A) object during the recall trial. Recognition index was assessed for each animal and expressed as a ratio ((time B/time A+time B)×100).
(R)-3-((E)-2-(Pyrrolidin-3-yl)vinyl)-5-(tetrahydropyran-4-yloxy)pyridine or a salt thereof improved long-term visual episodic/declarative memory as assessed by novel object recognition (NOR) task following oral dosing in normal rats. […] In the two “recall only” sessions; subset of animals were orally dosed with water on day 1 (i.e., exploratory session) and day 2 (i.e., acquisition session) and then orally dosed either with 1.1 μmol/kg (R)-3-((E)-2-(pyrrolidin-3-yl)vinyl)-5-(tetrahydropyran-4-yloxy)pyridine or a salt thereof (left panel) or 0.04 μmol/kg (right panel) on day 3 (i.e., recall session). […] In the Figure, the dashed line at 65% denotes subjective criteria for biological cognitive enhancing activity. *P<0.05.
(R)-3-((E)-2-(Pyrrolidin-3-yl)vinyl)-5-(tetrahydropyran-4-yloxy)pyridine or a salt thereof was evaluated for its duration of effect in the NOR task in normal rats. […] In the Figure, the dashed line at 65% denotes subjective criteria for biological cognitive enhancing activity (*P<0.05).

panel of 65 receptors = test: Multiple receptor screening assay; type: binding; details: single concentration of 10 μM
Method: (R)-3-((E)-2-(Pyrrolidin-3-yl)vinyl)-5-(tetrahydropyran-4-yloxy)pyridine or a salt thereof was tested for selectivity against a panel of 65 receptors.

| Molecule | Result of preliminary salt screen (physical form obtained) (Preliminary salt screen) | also measured |
| --- | --- | --- |
| O=C(O)c1ccc2ccccc2c1O [1-Hydroxy-2-naphthoic (Xinafoic)] | brown gum |  |
| CC(=O)Nc1ccc(C(=O)O)cc1 [4-Acetamidobenzoic] | oil |  |
| O=C(O)c1ccc(O)cc1 [4-Hydroxybenzoic] | tacky gum |  |
| COc1ccc(C(=O)O)cc1 [4-Methoxybenzoic] | Oil |  |
| CC1(C)[C@@H](C(=O)O)CC[C@@]1(C)C(=O)O [(1 R,3S)-(+)-Camphoric] | oil |  |
| CC1(C)[C@@H]2CC[C@@]1(CS(=O)(=O)O)C(=O)C2 [(1 S)-(+)-1 O-Camphorsulfonic] | oil |  |
| C(=C\[C@H]1CCNC1)/c1cncc(OC2CCOCC2)c1.O=C(O)C[C@H](O)C(=O)O [(R)-3-((E)-2-(pyrrolidin-3-yl)vinyl)-5-(tetrahydropyran-4-yloxy)pyridine mono-L-malate] | Crystals |  |
| O=C(O)CCCCC(=O)O [Adipic] | oil |  |
| O=C(O)CC(O)(CC(=O)O)C(=O)O [Citric] | tacky gum |  |
| C(=C\[C@H]1CCNC1)/c1cncc(OC2CCOCC2)c1 [Compound A, (R)-3-((E)-2-(pyrrolidin-3-yl)vinyl)-5-(tetrahydropyran-4-yloxy)pyridine] |  | variation of metabolism due to CYP polymorphism [1]: less than 2 fold; renal clearance contribution to total clearance ([1]; human): more than 50%; NOR time after dosing with statistically significant effect (out to / up to) (normal rats): ≤ 8 h; NOR time after dosing with statistically significant effect (out to / up to) (normal rats; listed as (R)-3-((E)-2-(pyrrolidin-3-yl)vinyl)-5-(tetrahydropyran-4-yloxy)pyridine): up to 8 h; NOR time after dosing with statistically significant effect (out to / up to) (normal rats; listed as Formula I): ≤ 8 h; NOR doses with statistically significant effect (as low as) (normal rats; FIG. 1): ≥ 0.004 µM/kg; NOR minimum effect dose (MED) level (normal rats; follow-up NOR study, oral, rats): 0.004 µmol/kg; NOR recognition index, recall only sessions (normal rats; single oral administration on day 3, 1.1 μmol/kg or 0.04 μmol/kg): recognition indexes significantly above controls; Multiple receptor screening assay, receptors hit (panel of 65 receptors): only to neuronal nicotinic receptors; Multiple receptor screening assay, receptors hit (panel of 65 receptors; listed as (R)-3-(2-(pyrrolidin-3-yl)vinyl)-5-((tetrahydro-2H-pyran-4-yl)oxy)pyridine): Only nicotinic |
| O=C[C@H](O)[C@@H](O)[C@H](O)[C@H](O)C(=O)O [D-glucuronic] | brown gum |  |
| Cl [Hydrochloric] | red oil |  |
| O=C(O)/C=C\C(=O)O [Maleic] | Oil |  |
| O=C(O)CC(=O)O [Malonic] | Oil |  |
| CS(=O)(=O)O [Methanesulfonic] | Oil |  |
| O=C(O)CCC(=O)O [Succinic] | red oil |  |
| Cc1ccc(S(=O)(=O)O)cc1.O [p-Toluenesulfonic.H20] | Oil |  |
| Fumaric | oil |  |
| L-Tartaric | Oil |  |
